Reference: article PMC5557372 (ChemMedChem, 2017)
≈ marks a conversion by molar mass, not a printed value. Where “and” joins values, the source holds several entries; their conditions need not be identical. Identical values can stand only once. Like-named read-outs stand apart in the source and are kept apart here.

What was measured:
[1] = system: PC3 prostate cancer cells under hypoxia; experiment: Hypoxia cytotoxicity in microfluidic culture
Complex II (CII) = Complex II (CII) (Rattus norvegicus, UniProt P21913+Q641Z9+Q6PCT8); experiment: Complex II inhibition assay; type: biochemical; conditions: for CII inhibition activity (in words): rat heart mitochondria; for LLE: Ligand-Lipophilicity Efficiency (LLE = pIC50-ClogP)
Sequence of Complex II (CII) (P21913 31-282): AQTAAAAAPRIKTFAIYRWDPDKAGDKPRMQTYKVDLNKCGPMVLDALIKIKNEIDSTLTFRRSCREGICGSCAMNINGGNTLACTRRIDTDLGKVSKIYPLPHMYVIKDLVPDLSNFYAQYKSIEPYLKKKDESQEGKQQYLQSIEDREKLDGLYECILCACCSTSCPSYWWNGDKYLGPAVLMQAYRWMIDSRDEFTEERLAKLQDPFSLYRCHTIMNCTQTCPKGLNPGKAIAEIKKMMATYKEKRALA
Sequence of Complex II (CII) (Q641Z9 30-169 limits assumed): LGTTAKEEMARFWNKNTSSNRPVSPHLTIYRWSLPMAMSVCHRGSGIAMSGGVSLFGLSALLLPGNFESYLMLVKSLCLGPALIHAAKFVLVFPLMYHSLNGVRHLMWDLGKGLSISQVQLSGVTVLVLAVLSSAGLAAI
Sequence of Complex II (CII) (Q6PCT8 57-159): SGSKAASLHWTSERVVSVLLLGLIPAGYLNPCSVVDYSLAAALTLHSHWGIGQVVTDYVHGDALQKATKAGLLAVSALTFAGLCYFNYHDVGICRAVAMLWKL
Sequence of Complex II (CII) (Q920L2 35-656 partner): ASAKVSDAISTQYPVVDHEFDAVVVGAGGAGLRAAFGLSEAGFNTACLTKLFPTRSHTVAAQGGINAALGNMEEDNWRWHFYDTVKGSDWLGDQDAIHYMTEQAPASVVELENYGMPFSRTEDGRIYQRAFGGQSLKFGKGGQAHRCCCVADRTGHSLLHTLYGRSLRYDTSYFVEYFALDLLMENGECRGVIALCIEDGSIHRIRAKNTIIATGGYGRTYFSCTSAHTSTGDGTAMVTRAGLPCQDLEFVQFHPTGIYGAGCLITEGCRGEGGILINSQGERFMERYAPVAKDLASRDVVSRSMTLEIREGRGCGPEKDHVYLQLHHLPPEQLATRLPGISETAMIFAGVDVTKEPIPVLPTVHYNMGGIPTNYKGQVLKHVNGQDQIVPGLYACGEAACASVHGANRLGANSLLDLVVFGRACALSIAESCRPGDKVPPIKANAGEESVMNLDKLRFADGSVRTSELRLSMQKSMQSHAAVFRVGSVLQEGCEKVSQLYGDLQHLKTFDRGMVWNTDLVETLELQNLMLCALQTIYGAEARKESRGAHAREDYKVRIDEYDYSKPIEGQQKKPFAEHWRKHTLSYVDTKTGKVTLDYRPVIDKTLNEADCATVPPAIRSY

CII = conditions: read-out: CII IC50, cited from earlier work
bovine CII = conditions: read-out: bovine CII IC50; cited from earlier work
[2] = system: 22Rv1 prostate cancer cells; experiment: MTS cytotoxicity assay, 22Rv1; conditions: 22Rv1, 48 hours; plateau beyond
HEK293 cells = experiment: MTS cytotoxicity assay, HEK293; conditions: for IC50: Homo sapiens, HEK293, 48 h, read-out: HEK293 IC50
[3] = target: Complex I (NADH ubiquinone-oxidoreductase) (Mus musculus, UniProt P03888+Q91WD5+Q9DC70); experiment: Complex I inhibition assay; type: biochemical; conditions: for Selectivity Ratio (CII:CI): Complex I IC50 / Complex II IC50
[4] = system: PC3 prostate cancer cells; experiment: MTS cytotoxicity assay, PC3; conditions: Homo sapiens, 48 h, read-out: PC3 IC50
22Rv1 cells = experiment: Seahorse XF metabolic parameters; type: cell-based, human; conditions: 22Rv1, 48 hour incubation
[5] = system: DU-145 prostate cancer cells; experiment: MTS cytotoxicity assay, DU-145; conditions: Homo sapiens, DU-145, 48 h, read-out: DU-145 IC50
[6] = CII IC50, rat heart mitochondria, mean of n = 4 ± S.D.

CCCCCC(O)c1c(O)nc(OC)c(OC)c1O (racemic) [compound 18, (rac)-3-(1-hydroxyhexyl)-5,6-dimethoxypyridine-2,4-diol]
cytotoxic effect under hypoxia (in words) ([1]; up to 10 μM): no cytotoxic effect | CII inhibition activity (in words) (Complex II (CII)): no CII inhibition activity | inhibition at 0.1 µM (Complex II (CII); read-out: inhibition of CII at 100 nM concentration): 0%

O=C(O)CC(=O)O [Malonate]
IC50 (CII): 40000 nM

COc1nc(O)c(C(=O)CCCCOCc2ccccc2)c(O)c1OC [16d, 5-(benzyloxy)-1-(2,4-dihydroxy-5,6-dimethoxypyridin-3-yl)pentan-1-one]
IC50 (Complex II (CII); [6]): 281 ± 88.7 nM

COc1nc(O)c(C(=O)CCCCO)c(O)c1OC [16e, 1-(2,4-dihydroxy-5,6-dimethoxypyridin-3-yl)-5-hydroxypentan-1-one]
IC50 (Complex II (CII); [6]): 3730 ± 1020 nM | fold greater CII activity than diazoxide (Complex II (CII); vs literature IC50 of diazoxide): 10 fold

CCCCCC(=O)c1cnc(OC)c(OC)c1O [compound 20, 1-(4-hydroxy-5,6-dimethoxypyridin-3-yl)hexan-1-one]
CII inhibition activity at 100 nM concentration (in words) (Complex II (CII)): no activity

Cc1c(C)c2c(c(C)c1OC(=O)CCC(=O)O)CC[C@@](C)(CCC[C@H](C)CCC[C@H](C)CCCC(C)C)O2 [α-Tocopheryl succinate, α -Tocopheryl succinate]
IC50 (CII): 42000 nM

CCCCCCCCC(=O)c1c(O)nc(OC)c(OC)c1O [16h, 1-(2,4-dihydroxy-5,6-dimethoxypyridin-3-yl)nonan-1-one]
LLE (Complex II (CII)): 4.93

CCCCCCCCCCC(=O)c1c(O)nc(OC)c(OC)c1O [16j, 1-(2,4-dihydroxy-5,6-dimethoxypyridin-3-yl)undecan-1-one]
LLE (Complex II (CII)): 4.32

CCCCCCC(=O)c1c(O)nc(OC)c(OC)c1O [16f, 1-(2,4-dihydroxy-5,6-dimethoxypyridin-3-yl)heptan-1-one]
IC50 (bovine CII): 20 nM | IC50 (Complex II (CII); [6]): 283 nM | LLE (Complex II (CII)): 4.57

COc1[nH]c(=O)c(C(=O)[C@@H](C)C[C@H](C)[C@@H](Cl)CCl)c(O)c1OC [Atpenin A5, atpenin A5, reference compound]
IC50 (CII): 3.6 to 10 nM | IC50 (Complex II (CII); [6]): 3.3 ± 2 nM

CCCCCCCCCCCCC(=O)c1c(O)nc(OC)c(OC)c1O [16k, 1-(2,4-dihydroxy-5,6-dimethoxypyridin-3-yl)tridecan-1-one]
concentration at which maximal cytotoxicity is reached [2]: 10000 ng/mL | IC50 (HEK293 cells): 28 ± 2 µg/mL (≈ 76.2 µM) | selectivity for 22Rv1 over HEK293 cell line (HEK293 cells; ratio of IC50 values): 14 fold | Selectivity Ratio (CII:CI) [3]: >3030 | LLE (Complex II (CII)): 3.76 | IC50 (Complex II (CII); read-out: CII IC50 expressed in μg/mL, conversion of the nM IC50): 3.29 nM

CCCCCCCC(=O)c1c(O)nc(OC)c(OC)c1O [16g, 1-(2,4-dihydroxy-5,6-dimethoxypyridin-3-yl)octan-1-one]
LLE (Complex II (CII)): 4.89

CCCCC(=O)c1c(O)nc(OC)c(OC)c1O [16b, 1-(2,4-dihydroxy-5,6-dimethoxypyridin-3-yl)pentan-1-one]
IC50 (bovine CII): 96 nM | IC50 (Complex II (CII); [6]): 345 nM and 346 nM | LLE (Complex II (CII)): 5.37

CCCCCC(=O)c1c(O)nc(OC)c(OC)c1O [16c, 1-(2,4-dihydroxy-5,6-dimethoxypyridin-3-yl)hexan-1-one]
IC50 [4]: 55 ± 9.4 µg/mL (≈ 204 µM) | cell death ([1]; 1 μM): 12% | oxygen consumption rate (22Rv1 cells; 1-100 μM): substantially reduced in a dose-dependent manner | ATP production (22Rv1 cells; vs no treatment control): inhibition of ATP production | basal respiration (22Rv1 cells; vs no treatment control): reducing basal respiration | maximal respiration (22Rv1 cells; vs no treatment control): reduction of maximal respiration | IC50 [5]: 13 ± 1.6 µg/mL (≈ 48.3 µM) | IC50 (HEK293 cells): 71 ± 5.2 µg/mL (≈ 264 µM) | selectivity for DU-145 and 22Rv1 prostate cancer cells over HEK293 (HEK293 cells; ratio of IC50 values): ~7 fold | IC50 [3]: > 10000 nM | Selectivity Ratio (CII:CI) [3]: >156 | IC50 (Complex II (CII); CII IC50 expressed in μg/mL, conversion of the nM IC50): 64 nM | LLE (Complex II (CII)): 5.62

O=C(CC(=O)C(F)(F)F)c1cccs1 [Thenoyltrifluoroacetone]
IC50 (CII; control compound in CII assay kits): 30000 nM

CCCCCC(OC)c1cnc(OC)c(OC)c1O (stereo not shown) [compound 24, 2,3-dimethoxy-5-(1-methoxyhexyl)pyridin-4-ol]
CII inhibition activity at 100 nM concentration (in words) (Complex II (CII)): no activity

COc1nc(O)c(C(=O)c2ccco2)c(O)c1OC [16a, (2,4-dihydroxy-5,6-dimethoxypyridin-3-yl)(furan-2-yl)methanone]
CII inhibition activity (in words) (Complex II (CII)): abrogates CII inhibition activity

CCCCCC(O)c1cnc(OC)c(OC)c1O (racemic) [compound 19, (rac)-5-(1-hydroxyhexyl)-2,3-dimethoxypyridin-4-ol]
CII inhibition activity (in words) (Complex II (CII)): inactive
